Measured values published in PubChem BioAssay AID1259407 (Chemical Carcinogenesis Research Information System (CCRIS), 2018).
Calls of active or inactive are those of the source. No rule for the calls is given here.

System: CCRIS mutagenicity, Ames/micronucleus/aberration tests
Experiment: CCRIS mutagenicity studies
[1] = Test System: AMES SALMONELLA TYPHIMURIUM, Strain/Indicator: TA1535, Metabolic Activation: NONE, Method: STANDARD PLATE
[2] = Test System: AMES SALMONELLA TYPHIMURIUM, Strain/Indicator: TA98, Metabolic Activation: NONE, Method: PREINCUBATION
[3] = Test System: AMES SALMONELLA TYPHIMURIUM, Strain/Indicator: TA100, Metabolic Activation: NONE, Method: PREINCUBATION

**Q.** How did the mutagenic call (Test System: AMES SALMONELLA TYPHIMURIUM, Strain/Indicator: TA98, Metabolic Activation: NONE, Method: STANDARD PLATE) turn out when CCOC(=O)C(SP(=S)(OC)OC)c1ccccc1 (stereo not given) was run?
**A.** inactive; negative

**Q.** What about the mutagenic call (Test System: AMES SALMONELLA TYPHIMURIUM, Strain/Indicator: TA98, Metabolic Activation: S-9, NADPH GENERATING SYSTEM, Method: STANDARD PLATE) of the same compound?
**A.** inactive; negative

**Q.** And the mutagenic call (Test System: AMES SALMONELLA TYPHIMURIUM, Strain/Indicator: TA102, Metabolic Activation: NONE, Method: STANDARD PLATE)?
**A.** inactive; negative

**Q.** What about the mutagenic call (Test System: AMES SALMONELLA TYPHIMURIUM, Strain/Indicator: TA102, Metabolic Activation: S-9, NADPH GENERATING SYSTEM, Method: STANDARD PLATE) of the same compound?
**A.** inactive; negative

**Q.** And the mutagenic call [1]?
**A.** inactive; negative

**Q.** What about the mutagenic call (Test System: AMES SALMONELLA TYPHIMURIUM, Strain/Indicator: TA1535, Metabolic Activation: S-9, NADPH GENERATING SYSTEM, Method: STANDARD PLATE) of the same compound?
**A.** inactive; negative

**Q.** And the mutagenic call (Test System: AMES SALMONELLA TYPHIMURIUM, Strain/Indicator: TA1537, Metabolic Activation: NONE, Method: STANDARD PLATE)?
**A.** inactive; negative

**Q.** And the mutagenic call (Test System: AMES SALMONELLA TYPHIMURIUM, Strain/Indicator: TA1537, Metabolic Activation: S-9, NADPH GENERATING SYSTEM, Method: STANDARD PLATE)?
**A.** inactive; negative

**Q.** What does the source list for O=S1(=O)CCCO1?
**A.** mutagenic call (Test System: AMES SALMONELLA TYPHIMURIUM, Strain/Indicator: TA100, Metabolic Activation: RAT, LIVER, S-9, KC500 OR PHENOBARBITAL, Method: LIQUID SUSPENSION): active; positive; mutagenic call [1]: active; positive; mutagenic call (Test System: UDS HUMAN FIBROBLASTS, Strain/Indicator: THY INCORP (NON-S-PHASE), Metabolic Activation: NONE, Method: LIQUID SCINTILLATION COUNTING): active; positive

**Q.** How did the mutagenic call (Test System: AMES SALMONELLA TYPHIMURIUM, Strain/Indicator: TA98(1,8-DNP), Metabolic Activation: NONE, Method: PREINCUBATION) turn out when Nc1nc(-c2ccc([N+](=O)[O-])cc2)nc2c1ncn2[C@@H]1O[C@H](CO)[C@@H](O)[C@H]1O was run?
**A.** active; positive

**Q.** What about the mutagenic call (Test System: AMES SALMONELLA TYPHIMURIUM, Strain/Indicator: TA98(NR), Metabolic Activation: NONE, Method: PREINCUBATION) of the same compound?
**A.** active; positive

**Q.** And the mutagenic call (Test System: AMES SALMONELLA TYPHIMURIUM, Strain/Indicator: TA98(NR), Metabolic Activation: RAT, LIVER, S-9, PCB, Method: PREINCUBATION)?
**A.** inactive; negative

**Q.** What about the mutagenic call [2] of the same compound?
**A.** active; positive

**Q.** And the mutagenic call (Test System: AMES SALMONELLA TYPHIMURIUM, Strain/Indicator: TA98, Metabolic Activation: RAT, LIVER, S-9, PCB, Method: PREINCUBATION)?
**A.** active; positive

**Q.** What about the mutagenic call (Test System: AMES SALMONELLA TYPHIMURIUM, Strain/Indicator: TA100(1,8-DNP), Metabolic Activation: RAT, LIVER, S-9, PCB, Method: PREINCUBATION) of the same compound?
**A.** inactive; negative

**Q.** And the mutagenic call (Test System: AMES SALMONELLA TYPHIMURIUM, Strain/Indicator: TA100(NR), Metabolic Activation: RAT, LIVER, S-9, PCB, Method: PREINCUBATION)?
**A.** inactive; negative

**Q.** And the mutagenic call [3]?
**A.** active; positive

**Q.** And the mutagenic call (Test System: AMES SALMONELLA TYPHIMURIUM, Strain/Indicator: TA100, Metabolic Activation: RAT, LIVER, S-9, PCB, Method: PREINCUBATION)?
**A.** active; positive

**Q.** And the mutagenic call (Test System: AMES SALMONELLA TYPHIMURIUM, Strain/Indicator: YG1020, Metabolic Activation: NONE, Method: PREINCUBATION)?
**A.** active; positive

**Q.** And the mutagenic call (Test System: AMES SALMONELLA TYPHIMURIUM, Strain/Indicator: YG1020, Metabolic Activation: RAT, LIVER, S-9, PCB, Method: PREINCUBATION)?
**A.** active; positive

**Q.** What about the mutagenic call (Test System: AMES SALMONELLA TYPHIMURIUM, Strain/Indicator: YG1021, Metabolic Activation: NONE, Method: PREINCUBATION) of the same compound?
**A.** active; positive

**Q.** What about the mutagenic call (Test System: AMES SALMONELLA TYPHIMURIUM, Strain/Indicator: YG1021, Metabolic Activation: RAT, LIVER, S-9, PCB, Method: PREINCUBATION) of the same compound?
**A.** active; positive

**Q.** And the mutagenic call (Test System: AMES SALMONELLA TYPHIMURIUM, Strain/Indicator: YG1024, Metabolic Activation: NONE, Method: PREINCUBATION)?
**A.** active; positive

**Q.** What about the mutagenic call (Test System: AMES SALMONELLA TYPHIMURIUM, Strain/Indicator: YG1024, Metabolic Activation: RAT, LIVER, S-9, PCB, Method: PREINCUBATION) of the same compound?
**A.** active; positive

**Q.** What about the mutagenic call (Test System: AMES SALMONELLA TYPHIMURIUM, Strain/Indicator: YG1025, Metabolic Activation: NONE, Method: PREINCUBATION) of the same compound?
**A.** active; positive

**Q.** What about the mutagenic call (Test System: AMES SALMONELLA TYPHIMURIUM, Strain/Indicator: YG1025, Metabolic Activation: RAT, LIVER, S-9, PCB, Method: PREINCUBATION) of the same compound?
**A.** active; positive

**Q.** And the mutagenic call (Test System: AMES SALMONELLA TYPHIMURIUM, Strain/Indicator: YG1026, Metabolic Activation: NONE, Method: PREINCUBATION)?
**A.** active; positive

**Q.** What about the mutagenic call (Test System: AMES SALMONELLA TYPHIMURIUM, Strain/Indicator: YG1026, Metabolic Activation: RAT, LIVER, S-9, PCB, Method: PREINCUBATION) of the same compound?
**A.** active; positive

**Q.** And the mutagenic call (Test System: AMES SALMONELLA TYPHIMURIUM, Strain/Indicator: YG1029, Metabolic Activation: NONE, Method: PREINCUBATION)?
**A.** active; positive

**Q.** And the mutagenic call (Test System: AMES SALMONELLA TYPHIMURIUM, Strain/Indicator: YG1029, Metabolic Activation: RAT, LIVER, S-9, PCB, Method: PREINCUBATION)?
**A.** active; positive

**Q.** With O=[N+]([O-])c1cccc(Cl)c1Cl as the compound, how does the mutagenic call (Test System: AMES SALMONELLA TYPHIMURIUM, Strain/Indicator: TA98, Metabolic Activation: HAMSTER, LIVER, S-9, AROCLOR 1254, Method: PREINCUBATION) read?
**A.** inactive; negative

**Q.** And the mutagenic call [2]?
**A.** inactive; negative

**Q.** What about the mutagenic call (Test System: AMES SALMONELLA TYPHIMURIUM, Strain/Indicator: TA98, Metabolic Activation: RAT, LIVER, S-9, AROCLOR 1254, Method: PREINCUBATION) of the same compound?
**A.** inactive; negative

**Q.** What about the mutagenic call (Test System: AMES SALMONELLA TYPHIMURIUM, Strain/Indicator: TA100, Metabolic Activation: HAMSTER, LIVER, S-9, AROCLOR 1254, Method: PREINCUBATION) of the same compound?
**A.** inactive; negative

**Q.** What about the mutagenic call [3] of the same compound?
**A.** inactive; negative

**Q.** What about the mutagenic call (Test System: AMES SALMONELLA TYPHIMURIUM, Strain/Indicator: TA100, Metabolic Activation: NONE, Method: STANDARD PLATE) of the same compound?
**A.** inactive; negative

**Q.** And the mutagenic call (Test System: AMES SALMONELLA TYPHIMURIUM, Strain/Indicator: TA100, Metabolic Activation: RAT, LIVER, S-9, AROCLOR 1254, Method: PREINCUBATION)?
**A.** inactive; negative

**Q.** What about the mutagenic call (Test System: AMES SALMONELLA TYPHIMURIUM, Strain/Indicator: TA1535, Metabolic Activation: HAMSTER, LIVER, S-9, AROCLOR 1254, Method: PREINCUBATION) of the same compound?
**A.** inactive; negative

**Q.** What about the mutagenic call (Test System: AMES SALMONELLA TYPHIMURIUM, Strain/Indicator: TA1535, Metabolic Activation: NONE, Method: PREINCUBATION) of the same compound?
**A.** inactive; negative

**Q.** And the mutagenic call (Test System: AMES SALMONELLA TYPHIMURIUM, Strain/Indicator: TA1535, Metabolic Activation: RAT, LIVER, S-9, AROCLOR 1254, Method: PREINCUBATION)?
**A.** inactive; negative

**Q.** And the mutagenic call (Test System: AMES SALMONELLA TYPHIMURIUM, Strain/Indicator: TA1537, Metabolic Activation: HAMSTER, LIVER, S-9, AROCLOR 1254, Method: PREINCUBATION)?
**A.** inactive; negative

**Q.** What about the mutagenic call (Test System: AMES SALMONELLA TYPHIMURIUM, Strain/Indicator: TA1537, Metabolic Activation: NONE, Method: PREINCUBATION) of the same compound?
**A.** inactive; negative

**Q.** What about the mutagenic call (Test System: AMES SALMONELLA TYPHIMURIUM, Strain/Indicator: TA1537, Metabolic Activation: RAT, LIVER, S-9, AROCLOR 1254, Method: PREINCUBATION) of the same compound?
**A.** inactive; negative

**Q.** C1=Cc2cc3cccc4c5ccccc5c5ccc1c2c5c34 was tested. Which mutagenic call (Test System: AMES SALMONELLA TYPHIMURIUM, Strain/Indicator: TA98, Metabolic Activation: RAT, LIVER, S-9, AROCLOR 1254 (0.14 OR 0.41 MG), Method: STANDARD PLATE) did it give?
**A.** active; positive

**Q.** What about the mutagenic call (Test System: AMES SALMONELLA TYPHIMURIUM, Strain/Indicator: TA100, Metabolic Activation: RAT, LIVER, S-9, AROCLOR 1254 (0.14 OR 0.41 MG), Method: STANDARD PLATE) of the same compound?
**A.** active; positive

**Q.** And the mutagenic call (Test System: AMES SALMONELLA TYPHIMURIUM, Strain/Indicator: TA104, Metabolic Activation: RAT, LIVER, S-9, AROCLOR 1254 (0.14 OR 0.41 MG), Method: STANDARD PLATE)?
**A.** active; positive

**Q.** What about the mutagenic call (Test System: AMES SALMONELLA TYPHIMURIUM, Strain/Indicator: TA1535, Metabolic Activation: RAT, LIVER, S-9, AROCLOR 1254 (0.14 OR 0.41 MG), Method: STANDARD PLATE) of the same compound?
**A.** inactive; negative

**Q.** And the mutagenic call (Test System: AMES SALMONELLA TYPHIMURIUM, Strain/Indicator: TA1537, Metabolic Activation: RAT, LIVER, S-9, AROCLOR 1254 (0.14 OR 0.41 MG), Method: STANDARD PLATE)?
**A.** active; positive

**Q.** What about the mutagenic call (Test System: AMES SALMONELLA TYPHIMURIUM, Strain/Indicator: TA1538, Metabolic Activation: RAT, LIVER, S-9, AROCLOR 1254 (0.14 OR 0.41 MG), Method: STANDARD PLATE) of the same compound?
**A.** active; positive

**Q.** Which mutagenic call [2] does the source give for Cc1c(N=[N+]([O-])c2cccc([N+](=O)[O-])c2C)cccc1[N+](=O)[O-] here?
**A.** inactive; negative

**Q.** What about the mutagenic call (Test System: AMES SALMONELLA TYPHIMURIUM, Strain/Indicator: TA98, Metabolic Activation: RAT, LIVER, S-9, PHENOBARBITAL AND 5,6-BENZOFLAVONE, Method: PREINCUBATION) of the same compound?
**A.** inactive; negative

**Q.** What about the mutagenic call [3] of the same compound?
**A.** inactive; negative

**Q.** And the mutagenic call (Test System: AMES SALMONELLA TYPHIMURIUM, Strain/Indicator: TA100, Metabolic Activation: RAT, LIVER, S-9, PHENOBARBITAL AND 5,6-BENZOFLAVONE, Method: PREINCUBATION)?
**A.** inactive; negative
